Results reported in paper PMC7228089, “Odiparcil, a potential glycosaminoglycans clearance therapy in mucopolysaccharidosis VI—Evidence from in vitro and in vivo models” (PLoS ONE, 2020).

How the values were obtained:
[1] = more than 30 clinical trials, total of 1900 subjects; earlier development as antithrombotic agent; cited from earlier work
Arsb^- mice [2] = test: Urinary excretion of total sulphated GAG (Blyscan) in mice treated with odiparcil; format: in vivo
Method: (§1) MPS VI model nonsense mutation Arsb^m1J homozygous mice (referred to as Arsb^- throughout the manuscript) and WT littermates were obtained from internal breeding of stock mice derived from The Jackson Laboratory strain No: 005598 (C57BL/6J-Arsb^m1J/GrsrJ). Genotyping and Arsb^m1J mutation identification were performed according to the protocol provided by The Jackson Laboratory. Each study group contained mix of male and female: 6 animals in disease progression studies and between 8 and 12 animals in odiparcil treatment studies.
(§2) Housing conditions. The animals were housed in groups of 3–10 (for mice) or 2 (for rats) in polypropylene cages (floor area = 1032 cm^2) under standard conditions: room temperature (22 ± 2°C), hygrometry (55 ± 10%), light/dark cycle (12h/12h), air replacement (15–20 volumes/hour), water and food ad libitum. […]
Total sulphated GAG in cell culture media were determined colorimetrically by DMMB method (described in [31] adapted for cell culture media). Total sulphated GAG in snap frozen liver and kidney samples and urine were measured using Blyscan assay from Biocolor Company (UK) following manufacturer’s instructions. […] For GAG in tissues quantification, individual pieces (approximately 50 mg) were removed from the frozen samples (liver and kidney), weighed and digested in 1 mL papain solution prepared according to the Blyscan kit protocol. […]

Arsb^- mice [3] = test: Granule accumulation in leukocytes (May-Grunwald-Giemsa blood smears); format: in vivo; details: early disease treatment, 6 months, high dose (4.5 g/kg diet)
Method: as §1
as §2, with “libitum. Mice were allowed to habituate for at least 5 days prior to experimentation. Mice were numbered by marking their tail using indelible markers.” for “libitum.”
Quantification of the accumulation of granules in leukocytes was done after May-Grunwald–Giemsa staining of blood smears and microscopic examination. […] Only blood smears from WT chow diet, Arsb^- chow diet and Arsb^- treated with high dose of odiparcil (4.5 g/kg diet) were analyzed. […]

[4] = system: MPS VI patient fibroblasts GM00538; test: Number of cultured cells (viability) during odiparcil treatment; format: cell-based, human; details: different odiparcil concentrations, growing and confluent conditions
Method: Primary skin fibroblasts from MPS VI patients GM00538 and GM02572 were obtained from the NIGMS Human Genetic Cell Repository at the Coriell Institute for Medical Research. Cell culturing was done according to the conditions provided by the Coriell Institute. For evaluation of the effect of odiparcil, cells were seeded in 96 well imaging plates (Falcon Cat N 353219) and two types of treatment were evaluated: i) prophylactic conditions—cells were treated with odiparcil before reaching confluence, 24 hours after plating; and ii) curative conditions—cells were treated with odiparcil after reaching confluence (10 days culturing). Cells were treated by odiparcil added to the culture media. This was done by replacing the initial culture media by media containing 0.1% DMSO with or without odiparcil (at 0.01, 0.03, 0.1, 0.3, 1, 3 and 10 μM). For treatment, the cells were incubated for 72 hours at 37°C, 5% CO2. All experimental conditions were performed in triplicate, i.e., 3 wells/test condition.
After odiparcil treatment as described above, culture media were removed to be used for dimethylmethylene blue (DMMB) assay and the cells were fixed in PFA 4%. Immunofluorescent staining was done following standard protocol comprising permeabilization with 0.1% Triton X 100, blocking with 2% NGS, staining with primary antibody and staining with secondary antibody and Hoechst (for nuclei visualization). […]

Cc1cc(=O)oc2cc(O[C@@H]3SC[C@@H](O)[C@H](O)[C@H]3O)ccc12 [Odiparcil, 4-methyl-7-(5-thio-β-D-xylopyranosyloxy)-2 H-chromen-2-one]
Safety and tolerability in clinical trials [1]: good safety and tolerability | Urinary GAG after discontinuation of the treatment (Arsb^- mice [2]; Arsb^- mice, two weeks after discontinuation): no elevated GAG were detected on top of the basal level | Total sulphated GAG in urine (Arsb^- mice [2]; wild type and Arsb^- mice, oral 1.5 or 4.5 g/kg diet, after 3 and 6 months, early and advanced disease protocols): elevation of total GAG in urine | Leukocytes with high granules accumulation (Arsb^- mice [3]): reduced number of leukocytes with high granules accumulation | Effect on viability of the cells (number of cells) [4]: no effect on viability of the cells
